Measured values reported in EP1082127B1 (WARNER-LAMBERT COMPANY LLC, priority 1998, dated 1999).

How the values were obtained:
ICE [1] = target: T1, ICE (Homo sapiens, UniProt P29466); experiment: ICE inhibition, Ki determination (fluorogenic substrate Ac-Tyr-Val-Ala-Asp-AMC); format: biochemical; conditions: 15 µM Ac-Tyr-Val-Ala-Asp-AMC, 0.5 nM enzyme, 30°C, reversible competitive model
T1 sequence (P29466 120-297 limits assumed): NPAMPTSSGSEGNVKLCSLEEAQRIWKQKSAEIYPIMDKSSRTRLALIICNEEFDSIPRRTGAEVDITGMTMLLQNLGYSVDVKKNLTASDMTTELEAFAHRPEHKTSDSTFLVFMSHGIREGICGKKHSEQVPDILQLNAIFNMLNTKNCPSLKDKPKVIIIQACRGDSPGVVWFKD
T1 sequence (P29466 317-404 limits assumed): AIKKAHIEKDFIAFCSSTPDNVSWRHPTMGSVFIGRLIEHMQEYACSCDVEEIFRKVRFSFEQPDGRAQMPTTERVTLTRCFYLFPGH
Procedure: Serial dilutions of each compound of the invention are prepared using an initial 8-fold dilution of a DMSO stock into HGE (100 mM HEPES, 20% glycerol v/v, 0.5 mM EDTA), followed by seven serial 2-fold dilutions into HGE + 12.5% DMSO. Ten microliters of diluted stocks or of vehicle (HGE + 12.5% DMSO) are placed in triplicate onto a 96-well microtiter plate. Enzyme is diluted into assay buffer (HGE, 5 mM DTT, 15 µM Ac-Tyr-Val-Ala-Asp-AMC; 0.5 nM final enzyme concentration, pre-warmed to 30°C), and this reaction mixture is added to the plate at 90 µL/well. Substrate hydrolysis is monitored for 300 seconds at 30°C using 385 and 460 nm excitation and emission filters, respectively. Triplicate curves are averaged, and slopes are evaluated by linear regression. To evaluate Ki, plots of percent inhibition vs inhibitor concentration are fit by non-linear regression to a reversible, competitive model: [formula] where the competition factor is (1 + [S]/KM) = 2.

ICE [2] = target: T1, ICE; experiment: ICE Colorimetric Dose-Response (IC50) Assay; format: biochemical; conditions: 60 minutes preincubation, 50 µM Ac-Tyr-Val-Ala-Asp-pNA, 25°C
Procedure: (§1) Diluted inhibitor stocks are prepared by two-fold serial dilution from a primary stock whose concentration is selected (based on screening results or on prior attempts at IC50 evaluation) to achieve approximately 95% inhibition in the most concentrated well. Aliquots of each dilution are transferred to a microtitre plate in triplicate.
(§2) ICE enzyme is diluted to approximately 24 nM in HGE buffer (100 mM Hepes pH 7.5, 0.5 mM EDTA, 20% glycerol, 0.1% Bovine Serum Albumin (BSA), and activated by adding dithiothreitol (DTT) to a final concentration of 5 mM. The activated enzyme is then aliquoted into wells containing inhibitor or vehicle, and the plate is preincubated for 60 minutes at ambient temperature. Substrate (Ac-Tyr-Val-Ala-Asp-pNA) is added to each well to a final concentration of 50 µM, and plates are placed in the microtitre plate-reader thermostated to 25°C. Beginning 5 minutes after addition of substrate, absorbance (405 nm) of wells is monitored for 1 hour, and activity is calculated as the mean rate of change in absorbance during this interval.

[3] = tested on: IL-1β production in human peripheral blood mononuclear cells (PBMCs); experiment: PBMC Cellular Assay - IC50 Determinations (LPS-stimulated IL-1β production, ELISA); format: cell-based; conditions: human PBMCs stimulated overnight with 10 ng/mL LPS, mature IL-1β by ELISA
From the text: Further evidence that compounds of Formula I are inhibitors of ICE is provided by their ability to inhibit IL-1β production in human peripheral blood mononuclear cells (PBMCs) as described herein. PBMCs are isolated from heparinized blood by centrifugation over a ficoll cushion, then washed three times with phosphate-buffered saline. PBMCs are suspended in a medium containing RPMI 1640 with glutamine, penicillin, streptomycin, and 2% human AB serum, then plated at 10^6 cells per well in 96-well flat bottom plates. PBMCs are stimulated overnight with 10 ng/mL of lipopolysaccharide (LPS, E. coli strain 0111:B4; Calbiochem) in the presence or absence of a compound of Formula I. Medium is harvested, and the level of mature IL-1β was determined using an ELISA kit from R&D Systems. Cells were cultured for an additional 4 hours in the presence of 3-(4,5-dimethylthiazol-2-yl)-2,5-diphenyltetrazolium bromide (MTT) to determine viability.

Ich-2 enzyme = target: T2, Ich-2 enzyme (Homo sapiens, UniProt P49662); experiment: Ich-2 Colorimetric Dose-Response (IC50) Assay; format: biochemical; conditions: enzyme 64 nM, 60 µM Ac-Leu-Glu-Val-Asp-pNA; read-out: ICH2 IC50 (Caspase 4)
T2 sequence (P49662 81-270 limits assumed): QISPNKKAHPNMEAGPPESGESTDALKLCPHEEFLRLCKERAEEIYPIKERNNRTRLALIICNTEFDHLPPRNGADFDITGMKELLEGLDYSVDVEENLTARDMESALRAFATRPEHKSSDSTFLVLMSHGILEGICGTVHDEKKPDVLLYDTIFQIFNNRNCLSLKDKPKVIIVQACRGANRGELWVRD
T2 sequence (P49662 290-377 limits assumed): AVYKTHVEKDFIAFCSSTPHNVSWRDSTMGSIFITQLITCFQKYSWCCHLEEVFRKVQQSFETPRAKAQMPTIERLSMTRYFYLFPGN
Procedure: as §1, §2
Inhibition of Ich-2 enzyme is assayed as described above for ICE, except that enzyme is used at 64 nM, and 60 µM of the Ich-2-specific substrate Ac-Leu-Glu-Val-Asp-pNA is used instead of the ICE substrate Ac-Tyr-Val-Ala-Asp-pNA.

Structure (SMILES) | Ki (ICE [1]) | IC50 (ICE [2]) | IC50 [3] | IC50 (Ich-2 enzyme)
CC(C)C(CC(=O)NCCc1nnn[nH]1)C(=O)NC(CC(=O)O)C(=O)CNS(=O)(=O)CC12CCC(CC1=O)C2(C)C (stereo not shown) [Example 34, 5-(7,7-Dimethyl-2-oxo-bicyclo[2.2.1]hept-1-ylmethanesulfonylamino)-3-(3-methyl-2-{[2-(1H-tetrazol-5-yl)-ethylcarbamoyl]-methyl}-butyrylamino)-4-oxo-pentanoic acid] | 16.6 nM | 115 nM | 2600 nM | 1100 nM
CC(C)[C@H](CC(=O)NCCCc1ccccc1)C(=O)N[C@H](C=O)CC(=O)O [Example 7, (S,S)-3-{3-Methyl-2-[(3-phenyl-propylcarbamoyl)-methyl]-butyrylamino}-4-oxo-butyric acid] | 115 nM | 444 nM | 6000 nM | 20700 nM
CC(C)C(CC(=O)NCCCc1ccccc1)C(=O)NC(CC(=O)O)C(=O)CNS(=O)(=O)CC12CCC(CC1)C2(C)C (stereo not shown) [Example 24, 5-(7,7-Dimethyl-bicyclo[2.2.1]hept-1-ylmethanesulfonylamino)-3-{3-methyl-2-[(3-phenyl-propylcarbamoyl)-methyl]-butyrylamino}-4-oxo-pentanoic acid] | 20.7 nM | 360 nM | 1600 nM | 8660 nM
CC(C)C(CC(=O)N(C)CCc1ccccc1)C(=O)NC(CC(=O)O)C(=O)CNS(=O)(=O)CC12CCC(CC1=O)C2(C)C (stereo not shown) [Example 11, 5-(7,7-Dimethyl-2-oxo-bicyclo[2.2.1]hept-1-ylmethanesulfonylamino)-3-{3-methyl-2-[(methyl-phenethyl-carbamoyl)-methyl]-butyrylamino}-4-oxopentanoic acid] | 58 nM | 440 nM | 5500 nM | 15700 nM
Cc1cc2ncn(CCN(C)C(=O)CC(C(=O)NC(C=O)CC(=O)O)C(C)C)c2cc1C (stereo not shown) [Example 60, 3-[2-({[2-(5,6-Dimethyl-benzoimidazol-1-yl)-ethyl]-methylcarbamoyl}-methyl)-3-methyl-butyrylamino]4-oxo-butyric acid] | 9.2 nM | 468 nM | 5000 nM | 12700 nM
CCOC1OC(=O)CC1NC(=O)[C@@H](CC(=O)NCCn1cnc2cc(Cl)c(Cl)cc21)C(C)C (stereo partly shown) [Example 38, N^4-[2-(5,6-Dichloro-benzoimidazol-1-yl)-ethyl]-N^1-(2-ethoxy-5-oxo-tetrahydro-furan-3-yl)-2-isopropyl-succinamide] | 16.4 nM | 377 nM | 3400 nM | 18700 nM
CC(C)C(CC(=O)NCCCc1ccccc1)C(=O)NC(CC(=O)O)C(=O)CNS(=O)(=O)CC12CCC(CC1=O)C2(C)C (stereo not shown) [Example 12, 5-(7,7-Dimethyl-2-oxo-bicyclo[2.2.1]hept-1-ylmethanesulfonylamino)-3-{3-methyl-2-[(3-phenyl-propylcarbamoyl)-methyl]-butyrylamino}-4-oxo-pentanoic acid] | 12.8 nM | 61 nM | 1200 nM | 1710 nM
CC(C)C(CC(=O)NCCc1ccccc1)C(=O)NC(CC(=O)O)C(=O)CSCCCc1ccccc1 (stereo not shown) [Example 10, 3-[3-Methyl-2-(phenethylcarbamoyl-methyl)-butyrylamino]-4-oxo-5-(3-phenyl-propylsulfanyl)-pentanoic acid] | 539 nM | 3270 nM | 21500 nM | 25700 nM
CC(C)C(CC(=O)NCCc1ccc2ccccc2c1)C(=O)NC(CC(=O)O)C(=O)CNS(=O)(=O)CC12CCC(CC1=O)C2(C)C (stereo not shown) [Example 18, 5-(7,7-Dimethyl-2-oxo-bicyclo[2.2.1]hept-1-ylmethanesulfonylamino)-3-{3-methyl-2-[(2-naphthalen-2-yl-ethylcarbamoyl)-methyl]-butyrylamino}-4-oxo-pentanoic acid] | 23.6 nM | 89.4 nM | 2050 nM | 3010 nM
CC(C)C(CC(=O)NCCc1ccccc1)C(=O)NC(CC(=O)O)C(=O)CNS(=O)(=O)CC12CCC(CC1)C2(C)C (stereo not shown) [Example 6, 5-(7,7-Dimethyl-bicyclo[2.2.1]hept-1-ylmethanesulfonylamino)-3-[3-methyl-2-(phenethylcarbamoyl-methyl)-butyrylamino]-4-oxo-pentanoic acid] | 142 nM | 1060 nM | 3250 nM | 9590 nM
CC(C)C(CC(=O)NCCCc1cccc2ccccc12)C(=O)NC(CC(=O)O)C(=O)CNS(=O)(=O)CC12CCC(CC1=O)C2(C)C (stereo not shown) [Example 28, 5-(7,7-Dimethyl-2-oxo-bicyclo[2.2.1]hept-1-ylmethanesulfonylamino)-3-{3-methyl-2-[(3-naphthalen-1-yl-propylcarbamoyl)-methyl]-butyrylamino}-4-oxo-pentanoic acid] | 6.1 nM | 254 nM | 550 nM | 5580 nM
CC(C)[C@H](CC(=O)NCCc1cn(C)c2ccccc12)C(=O)NC(CC(=O)O)C(=O)CNS(=O)(=O)CC12CCC(CC1)C2(C)C (stereo partly shown) [Example 25] | 5.8 nM | 48.3 nM | 1100 nM | 3540 nM
CC(CC(=O)NCCc1ccccc1)C(=O)NC(CC(=O)O)C(=O)CNS(=O)(=O)CCc1ccccc1 (stereo not shown) [Example 1, 3-(2-Methyl-3-phenethylcarbamoyl-propionylamino)-4-oxo-5-(2-phenylethanesulfonylamino)-pentanoic acid] | 1600 nM | 14500 nM | 82500 nM | 89000 nM
CC(C)C(CC(=O)NCCn1ncc2ccccc21)C(=O)NC(C=O)CC(=O)O (stereo not shown) [Example 59, 3-{2-[(2-Indazol-1-yl-ethylcarbamoyl)-methyl]-3-methyl-butyrylamino}-4-oxo-butyric acid] | 33.2 nM | 56.6 nM | 3750 nM | 10400 nM
CC(C)C(CC(=O)NCCCc1ccncc1)C(=O)NC(CC(=O)O)C(=O)CNS(=O)(=O)CC12CCC(CC1=O)C2(C)C (stereo not shown) [Example 26, 5-(7,7-Dimethyl-2-oxo-bicyclo[2.2.1]hept-1-ylmethanesulfonylamino)-3-{3-methyl-2-[(3-pyridin-4-yl-propylcarbamoyl)-methyl]-butyrylamino}-4-oxo-pentanoic acid] | 26.6 nM | 136 nM | 2000 nM | 9910 nM
CC(C)C(CC(=O)NCCc1ccccc1)C(=O)NC(CC(=O)O)C(=O)CNS(=O)(=O)CCc1ccccc1 (stereo not shown) [Example 5, 3-[3-Methyl-2-(phenethylcarbamoyl-methyl)-butyrylamino]-4-oxo-5-(2-phenyl-ethanesulfonylamino)-pentanoic acid] | 336 nM | 3550 nM | 35000 nM | 9020 nM
